From US20250177426A1, “METHODS AND COMPOSITIONS FOR TREATING DEMENTIA” (Cognitive Synergy Corporation, priority 2023, published 2025)
Values joined by “and” are separate entries in the source; they are usually repeats but may differ in a detail not shown here. Equal entries are not always repeated.

Columns and labels:
Aβ protein = biological target: T1, Aβ protein (Homo sapiens, UniProt P05067); experiment: Aβ fibrillization, percent of control; format: biochemical; conditions: for Aβ fibrillization as compared to control: FIG. 7; for Aβ fibrillization as compared to the control: FIG. 12; for fibrillization of Aβ protein: FIG. 9, control = 100
T1 construct: The bar graph 700 includes a control sample with 10 μM Aβ protein
T1 sequence (P05067 672-711 limits assumed): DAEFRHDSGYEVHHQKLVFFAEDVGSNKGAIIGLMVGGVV
Experimental: Referring to FIG. 7, FIG. 7 is a bar graph 700 showing a percentage of Aβ fibrillization as compared to a control for neoliquiritin, sebiricose A5, (Z)SA glycoside, and (E)SA glycoside. The bar graph 700 includes a control sample with 10 μM Aβ protein. The amount of Aβ fibrillization in the control sample is normalized to 100%. All other samples in the bar graph 700 include 10 μM Aβ protein and another compound at a concentration of 100 μM.
Referring to FIG. 8, FIG. 8 is a bar graph 800 showing a percentage of Aβ fibrillization as compared to a control for neoliquiritin samples of various concentrations. The amount of Aβ fibrillization in the control sample is normalized to 100%. All other samples in the bar graph 800 include 10 μM Aβ protein and a variable concentration of neoliquiritin.
Referring to FIG. 9, FIG. 9 is a bar graph 900 showing a percentage of Aβ fibrillization as compared to a control for neoliquiritin and liquiritigenin samples of various concentrations. Like the other bar graphs, the control sample is on the left side of the bar graph 900. The control sample comprises 10 μM Aβ protein and the percent fibrillization of Aβ protein in the control sample is normalized to 100. All other samples, which contain either neoliquiritin or liquiritigenin, also include a concentration of 10 μM Aβ protein.
Referring to FIG. 12, FIG. 12 is a bar graph 1200 showing a percentage of Aβ fibrillization as compared to a control for sinapic acid, trans-sinapic acid, and sinapic acid O-glucoside at various concentrations. On the left side of the bar graph 1200, a control sample comprising 10 μM Aβ protein has a fibrillization measurement normalized to 100. All other samples include the same concentration of 10 μM Aβ protein as a control sample.

SH-SY5Y cells = experiment: Survival of SH-SY5Y cells in solutions of Aβ; format: cell-based; conditions: FIG. 11, Aβ-only control 69%
Experimental: Referring to FIG. 10, FIG. 10 is a bar graph 1000 showing a percentage of survival of SH-SY5Y cells in solutions of Aβ and various concentrations of neoliquiritin. […] All the samples in the bar graph 1000 comprised the same concentration of 10 μM Aβ protein as the control sample as well as a variable concentration of neoliquiritin.
Referring to FIG. 11, FIG. 11 is a bar graph 1100 showing a percentage of survival of SH-SY5Y cells in solutions of neoliquiritin, isoliquiritigenin, isoliquiritin, sinapic acid O-glucoside, trans-sinapic acid, and liquiritigenin at various concentrations. […] The other samples in the bar graph 1100 all contain the same concentration of 10 μM Aβ protein as a control sample.

Aβ fibrils = biological target: T2, Aβ fibrils (Homo sapiens, UniProt P05067); experiment: Relative fluorescence of prefibrillated Aβ after timed treatment; format: biochemical; conditions: FIG. 14, 50 μM compound
T2 construct: The bar graph 700 includes a control sample with 10 μM Aβ protein
T2 sequence (P05067 672-711 limits assumed): as above
Text: Control samples containing only Aβ protein as starting material are unshaded. Other samples containing Aβ protein and an additional compound have shading according to the legend on the bottom of the bar graphs 1400.

[1] = 10 μM Aβ protein and 100 μM compound
[2] = 10 μM Aβ protein and 100 nM compound
[3] = 10 μM Aβ protein and 1 μM compound
[4] = 10 μM Aβ protein and 10 μM compound

Question: Which “Aβ fibrillization as compared to control” value (Aβ protein; [1]) does the source give for `COc1cc(/C=C/C(=O)O)cc(OC)c1O[C@@H]1O[C@H](O)[C@@H](O)[C@H](O)[C@H]1O` [(E)SA glycoside] here?
Answer: 51%

Question: What does the source list for `COc1cc(/C=C/C(=O)O)cc(OC)c1O` [SA, sinapic acid, reference compound]?
Answer: Aβ fibrillization as compared to the control (Aβ protein; [2]): 105%; Aβ fibrillization as compared to the control (Aβ protein; [3]): 101%; Aβ fibrillization as compared to the control (Aβ protein; [4]): 114%; Aβ fibrillization as compared to the control (Aβ protein; [1]): 85%

Question: Which results are given for `COc1cc(/C=C/C(=O)O)cc(OC)c1O` [T-SA, trans-sinapic acid, reference compound]?
Answer: survival for the SH-SY5Y cells (SH-SY5Y cells; [3]): 76%; survival for the SH-SY5Y cells (SH-SY5Y cells; [4]): 77%; Relative fluorescence for Aβ fibrils (Aβ fibrils; 46.5 hours, Aβ only approximately 900000): approximately 850000 RFU; Relative fluorescence for Aβ fibrils (Aβ fibrils; 48 hours, Aβ only approximately 1070000): approximately 940000 RFU; Relative fluorescence for Aβ fibrils (Aβ fibrils; 60 hours, Aβ only approximately 1010000): approximately 940000 RFU; Relative fluorescence for Aβ fibrils (Aβ fibrils; 72 hours, Aβ only approximately 980000): approximately 770000 RFU; Aβ fibrillization as compared to the control (Aβ protein; [2]): 98%; Aβ fibrillization as compared to the control (Aβ protein; [3]): 95%; Aβ fibrillization as compared to the control (Aβ protein; [4]): 89%; Aβ fibrillization as compared to the control (Aβ protein; [1]): 79%

Question: Which “survival for the SH-SY5Y cells” value (SH-SY5Y cells; [3]) does the source give for `O=C(/C=C/c1ccc(O)cc1)c1ccc(O)cc1O` [isoliquiritigenin] here?
Answer: 84%

Question: What about the “survival for the SH-SY5Y cells” value (SH-SY5Y cells; [4]) of the same molecule?
Answer: 81%

Question: For `O=C(/C=C/c1ccc(O[C@@H]2O[C@H](CO)[C@@H](O)[C@H](O)[C@H]2O)cc1)c1ccc(O)cc1O` [isoliquiritin], which “survival for the SH-SY5Y cells” value (SH-SY5Y cells; [3]) is on record?
Answer: 72%

Question: And the “survival for the SH-SY5Y cells” value (SH-SY5Y cells; [4])?
Answer: 74%

Question: With `O=C1C[C@@H](c2ccc(O)cc2)Oc2cc(O)ccc21` [liquiritigenin, reference compound] as the molecule, how does the “survival for the SH-SY5Y cells” value (SH-SY5Y cells; [3]) read?
Answer: 67%

Question: And the “survival for the SH-SY5Y cells” value (SH-SY5Y cells; [4])?
Answer: 67%

Question: What about the “fibrillization of Aβ protein” value (Aβ protein; 100 nM compound and 10 μM Aβ protein) of the same molecule?
Answer: 94%

Question: And the “fibrillization of Aβ protein” value (Aβ protein; 10 μM compound and 10 μM Aβ protein)?
Answer: 92% and 90%

Question: And the “fibrillization of Aβ protein” value (Aβ protein; 50 μM compound and 10 μM Aβ protein)?
Answer: 97%

Question: And the “fibrillization of Aβ protein” value (Aβ protein; 100 μM compound and 10 μM Aβ protein)?
Answer: 83%

Question: How did the “Aβ fibrillization as compared to control” value (Aβ protein; [1]) turn out when Sebiricose A5 [reference compound] was run?
Answer: 86%
